From US12077503B2, “Substituted cyclic amides and their use as herbicides” (FMC CORPORATION, priority 2015, dated 2024)

Tests used:
Format in all cases: in vivo
[1] = system: blackgrass (Alopecurus myosuroides); assay: Test A postemergence; conditions: Alopecurus myosuroides, post-emergence, 240 h, 125 g ai/ha, postemergence, visual injury rating after approximately 10 d; read-out: Blackgrass plant response rating (0 to 100 scale, 0 no effect, 100 complete control)
Outline: (§1)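 Visual injury scores from 0, no effect, to 100, complete control, were assigned versus untreated controls roughly 10 d after treatment in the greenhouse. Test chemicals, formulated with surfactant in a non-phytotoxic solvent, were applied to planted seeds as a preemergence soil spray or postemergence to one- to two-leaf plants 2 to 10 cm tall, in loam–sand soil.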

[2] = system: Kochia (Kochia scoparia); assay: Test A postemergence; conditions: Bassia scoparia, post-emergence, 240 h, 125 g ai/ha, postemergence, visual injury rating after approximately 10 d; read-out: Kochia plant response rating (0 to 100 scale, 0 no effect, 100 complete control)
Outline: as §1

[3] = system: ragweed (common ragweed, Ambrosia elatior); assay: Test A postemergence; conditions: Ambrosia artemisiifolia, post-emergence, 240 h, 125 g ai/ha, postemergence, visual injury rating after approximately 10 d; read-out: Ragweed plant response rating (0 to 100 scale, 0 no effect, 100 complete control)
Outline: as §1

[4] = system: wheat (Triticum aestivum); assay: Test A postemergence; conditions: Triticum aestivum, post-emergence, 240 h, 125 g ai/ha, postemergence, visual injury rating after approximately 10 d; read-out: Wheat plant response rating (0 to 100 scale, 0 no effect, 100 complete control)
Outline: as §1

[5] = system: giant foxtail (Setaria faberii); assay: Test A postemergence; conditions: Setaria faberi, post-emergence, 240 h, 125 g ai/ha, postemergence, visual injury rating after approximately 10 d; read-out: Foxtail, Giant plant response rating (0 to 100 scale, 0 no effect, 100 complete control)
Outline: as §1

[6] = system: barnyardgrass (Echinochloa crus-galli); assay: Test A postemergence; conditions: Echinochloa crus-galli, post-emergence, 240 h, 125 g ai/ha, postemergence, visual injury rating after approximately 10 d; read-out: Barnyardgrass plant response rating (0 to 100 scale, 0 no effect, 100 complete control)
Outline: as §1

[7] = system: ryegrass, Italian (Italian ryegrass, Lolium multiflorum); assay: Test A postemergence; conditions: Lolium multiflorum, post-emergence, 240 h, 125 g ai/ha, postemergence, visual injury rating after approximately 10 d; read-out: Ryegrass, Italian plant response rating (0 to 100 scale, 0 no effect, 100 complete control)
Outline: as §1

[8] = system: Galium (catchweed bedstraw, Galium aparine); assay: Test A postemergence; conditions: Galium, post-emergence, 240 h, 125 g ai/ha, postemergence, visual injury rating after approximately 10 d; read-out: Galium plant response rating (0 to 100 scale, 0 no effect, 100 complete control)
Outline: as §1

[9] = system: corn (Zea mays); assay: Test A postemergence; conditions: Zea mays, post-emergence, 240 h, 125 g ai/ha, postemergence, visual injury rating after approximately 10 d; read-out: Corn plant response rating (0 to 100 scale, 0 no effect, 100 complete control)
Outline: as §1

[10] = system: pigweed (Amaranthus retroflexus); assay: Test A postemergence; conditions: Amaranthus retroflexus, post-emergence, 240 h, 125 g ai/ha, postemergence, visual injury rating after approximately 10 d; read-out: Pigweed plant response rating (0 to 100 scale, 0 no effect, 100 complete control)
Outline: as §1

[11] = system: Kochia (Kochia scoparia); assay: Test A preemergence; conditions: Bassia scoparia, pre-emergence, 240 h; for pest or weed control at 125 g/ha: 125 g ai/ha, preemergence, 0 to 100 scale where 0 is no effect and 100 is complete control, read-out: Kochia plant response rating; for pest or weed control at 500 g/ha: 500 g ai/ha, Preemergence, visual injury vs untreated controls after approximately 10 d, read-out: Kochia plant response rating (0 to 100 scale where 0 is no effect and 100 is complete control)
Outline: as §1

[12] = system: ragweed (common ragweed, Ambrosia elatior); assay: Test A preemergence; conditions: Ambrosia artemisiifolia, pre-emergence, 240 h; for pest or weed control at 125 g/ha: 125 g ai/ha, preemergence, 0 to 100 scale where 0 is no effect and 100 is complete control, read-out: Ragweed plant response rating; for pest or weed control at 500 g/ha: 500 g ai/ha, Preemergence, visual injury vs untreated controls after approximately 10 d, read-out: Ragweed plant response rating (0 to 100 scale where 0 is no effect and 100 is complete control)
Outline: as §1

[13] = system: barnyardgrass (Echinochloa crus-galli); assay: Test A preemergence; conditions: Echinochloa crus-galli, pre-emergence, 240 h; for pest or weed control at 125 g/ha: 125 g ai/ha, preemergence, 0 to 100 scale where 0 is no effect and 100 is complete control, read-out: Barnyardgrass plant response rating; for pest or weed control at 500 g/ha: 500 g ai/ha, Preemergence, visual injury vs untreated controls after approximately 10 d, read-out: Barnyardgrass plant response rating (0 to 100 scale where 0 is no effect and 100 is complete control)
Outline: as §1

[14] = system: ryegrass, Italian (Italian ryegrass, Lolium multiflorum); assay: Test A preemergence; conditions: Lolium multiflorum, pre-emergence, 240 h; for pest or weed control at 125 g/ha: 125 g ai/ha, preemergence, 0 to 100 scale where 0 is no effect and 100 is complete control, read-out: Ryegrass, Italian plant response rating; for pest or weed control at 500 g/ha: 500 g ai/ha, Preemergence, visual injury vs untreated controls after approximately 10 d, read-out: Ryegrass, Italian plant response rating (0 to 100 scale where 0 is no effect and 100 is complete control)
Outline: as §1

[15] = system: pigweed (Amaranthus retroflexus); assay: Test A preemergence; conditions: Amaranthus retroflexus, pre-emergence, 240 h; for pest or weed control at 125 g/ha: 125 g ai/ha, preemergence, 0 to 100 scale where 0 is no effect and 100 is complete control, read-out: Pigweed plant response rating; for pest or weed control at 500 g/ha: 500 g ai/ha, Preemergence, visual injury vs untreated controls after approximately 10 d, read-out: Pigweed plant response rating (0 to 100 scale where 0 is no effect and 100 is complete control)

`CN1C[C@H](c2cc(F)cc(F)c2)[C@@H](C(=O)Nc2ccc(C(F)(F)F)cn2)C1=O` [Compound 869] showed a pest or weed control at 125 g/ha [1] of 0%, a pest or weed control at 125 g/ha [2] of 0% and a pest or weed control at 125 g/ha [3] of 0%. For the same molecule, the plant injury at 125 g/ha [4] was 0%, the pest or weed control at 125 g/ha [5] was 60% and the pest or weed control at 125 g/ha [6] was 80%. It also gave a pest or weed control at 125 g/ha [7] of 0%, a pest or weed control at 125 g/ha [8] of 0% and a plant injury at 125 g/ha [9] of 0%. The pest or weed control at 125 g/ha [10] was 0%, the pest or weed control at 125 g/ha [11] was 0% and the pest or weed control at 500 g/ha [11] was 0%. For the same molecule, the pest or weed control at 125 g/ha [12] was 0%, the pest or weed control at 500 g/ha [12] was 0% and the pest or weed control at 125 g/ha [13] was 60%. It also gave a pest or weed control at 500 g/ha [13] of 90%, a pest or weed control at 125 g/ha [14] of 0% and a pest or weed control at 500 g/ha [14] of 0%. For the same molecule, the pest or weed control at 125 g/ha [15] was 0% and the pest or weed control at 500 g/ha [15] was 0%.
`COc1cc([C@H]2CN(C)C(=O)[C@@H]2C(=O)Nc2ccccc2F)cc(C(F)(F)F)c1` [Compound 855] was tested, and the pest or weed control at 125 g/ha [1] was 60%, the pest or weed control at 125 g/ha [2] was 0% and the pest or weed control at 125 g/ha [3] was 0%. For the same molecule, the plant injury at 125 g/ha [4] was 50%, the pest or weed control at 125 g/ha [5] was 90% and the pest or weed control at 125 g/ha [6] was 90%. For the same molecule, the pest or weed control at 125 g/ha [7] was 20%, the pest or weed control at 125 g/ha [8] was 0% and the plant injury at 125 g/ha [9] was 70%. For the same molecule, the pest or weed control at 125 g/ha [10] was 20%, the pest or weed control at 125 g/ha [11] was 20% and the pest or weed control at 500 g/ha [11] was 30%. For the same molecule, the pest or weed control at 125 g/ha [12] was 0%, the pest or weed control at 500 g/ha [12] was 0% and the pest or weed control at 125 g/ha [13] was 90%. The pest or weed control at 500 g/ha [13] was 100%, the pest or weed control at 125 g/ha [14] was 0% and the pest or weed control at 500 g/ha [14] was 30%. The pest or weed control at 125 g/ha [15] was 30%.
`CCc1cc([C@H]2CNC(=O)[C@@H]2C(=O)Nc2ccccc2F)cs1` [Compound 913] gave a pest or weed control at 125 g/ha [1] of 0%, a pest or weed control at 125 g/ha [2] of 0% and a pest or weed control at 125 g/ha [3] of 30%. For the same molecule, the plant injury at 125 g/ha [4] was 0%, the pest or weed control at 125 g/ha [5] was 30% and the pest or weed control at 125 g/ha [6] was 90%. It also gave a pest or weed control at 125 g/ha [7] of 0%, a pest or weed control at 125 g/ha [8] of 30% and a plant injury at 125 g/ha [9] of 0%. For the same molecule, the pest or weed control at 125 g/ha [10] was 0%, the pest or weed control at 125 g/ha [11] was 0% and the pest or weed control at 500 g/ha [11] was 40%. For the same molecule, the pest or weed control at 125 g/ha [12] was 0%, the pest or weed control at 500 g/ha [12] was 60% and the pest or weed control at 125 g/ha [13] was 80%. For the same molecule, the pest or weed control at 500 g/ha [13] was 90%, the pest or weed control at 125 g/ha [14] was 0% and the pest or weed control at 500 g/ha [14] was 40%. For the same molecule, the pest or weed control at 125 g/ha [15] was 0% and the pest or weed control at 500 g/ha [15] was 0%.
Molecule `Cc1c(F)ccc([C@H]2CN(C)C(=O)[C@@H]2C(=O)Nc2cccc(F)c2F)c1F` [Compound 834] has a pest or weed control at 125 g/ha [1] of 60%, a pest or weed control at 125 g/ha [2] of 40% and a pest or weed control at 125 g/ha [3] of 0%. For the same molecule, the plant injury at 125 g/ha [4] was 30%, the pest or weed control at 125 g/ha [5] was 90% and the pest or weed control at 125 g/ha [6] was 90%. The pest or weed control at 125 g/ha [7] was 60%, the pest or weed control at 125 g/ha [8] was 60% and the plant injury at 125 g/ha [9] was 40%. It also gave a pest or weed control at 125 g/ha [10] of 20%, a pest or weed control at 125 g/ha [11] of 80% and a pest or weed control at 500 g/ha [11] of 90%. It also gave a pest or weed control at 125 g/ha [12] of 0%, a pest or weed control at 500 g/ha [12] of 20% and a pest or weed control at 125 g/ha [13] of 90%. It also gave a pest or weed control at 500 g/ha [13] of 90%, a pest or weed control at 125 g/ha [14] of 70% and a pest or weed control at 500 g/ha [14] of 80%. The pest or weed control at 125 g/ha [15] was 0% and the pest or weed control at 500 g/ha [15] was 30%.
